# Laboratory results published in US20260263429A1, “INHIBITORS OF CA 2+/CALMODULIN-DEPENDENT PROTEIN KINASE II (CAMKII) THAT DO NOT INHIBIT LONG-TERM POTENTIATION (LTP) INDUCTION AND THERAPEUTIC USES THEREOF” (The Regents of the University of Colorado, A Body Corporate, priority 2023, published 2026).
# Tests used:
# AMPKα1(h) = AMPKα1(h) (Homo sapiens, UniProt Q13131); test: Kinase panel, residual kinase activity at 1 μM inhibitor; type: biochemical
# Description: (§1) In this table, residual kinase activity in the presence of 1 μM of each inhibitor is illustrated as a percentage of maximal activity.
# Arg(h) = Arg(h) (Homo sapiens, UniProt P42684); test: as above; type: biochemical
# Description: as §1
# Aurora-C(h) = Aurora-C(h) (Homo sapiens, UniProt Q9UQB9); test: as above; type: biochemical
# Description: as §1
# CDK5/p35(h) = CDK5/p35(h) (Homo sapiens, UniProt Q00535); test: as above; type: biochemical
# CDK5/p35(h), sequence (Q00535 whole entry): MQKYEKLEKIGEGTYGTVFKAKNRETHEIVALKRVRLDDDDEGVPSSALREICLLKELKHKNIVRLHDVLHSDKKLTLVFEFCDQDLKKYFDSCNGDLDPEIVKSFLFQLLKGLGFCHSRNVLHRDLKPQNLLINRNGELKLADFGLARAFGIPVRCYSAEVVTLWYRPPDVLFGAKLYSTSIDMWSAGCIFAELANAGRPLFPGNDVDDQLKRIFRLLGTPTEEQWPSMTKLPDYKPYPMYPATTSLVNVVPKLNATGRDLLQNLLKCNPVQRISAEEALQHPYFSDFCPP
# CDK5/p35(h), sequence (Q15078 whole entry partner): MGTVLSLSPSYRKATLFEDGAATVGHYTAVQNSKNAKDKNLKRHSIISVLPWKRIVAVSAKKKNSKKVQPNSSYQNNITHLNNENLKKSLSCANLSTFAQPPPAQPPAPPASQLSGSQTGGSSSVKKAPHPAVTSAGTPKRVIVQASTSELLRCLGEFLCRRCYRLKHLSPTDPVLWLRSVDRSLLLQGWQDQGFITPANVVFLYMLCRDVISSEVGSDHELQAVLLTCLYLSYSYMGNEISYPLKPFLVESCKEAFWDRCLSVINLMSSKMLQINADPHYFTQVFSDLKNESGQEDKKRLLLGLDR
# Description: as §1
# CaMKIIα(h) = CaMKIIα(h) (Homo sapiens, UniProt Q9UQM7); test: as above; type: biochemical
# Description: as §1
# CaMKIIβ(h) = CaMKIIβ(h) (Homo sapiens, UniProt Q13554); test: as above; type: biochemical
# Description: as §1
# CaMKIV(h) = CaMKIV(h) (Homo sapiens, UniProt Q16566); test: as above; type: biochemical
# Description: as §1
# FGFR1(h) = FGFR1(h) (Homo sapiens, UniProt P11362); test: as above; type: biochemical
# FGFR1(h), sequence (P11362 22-822): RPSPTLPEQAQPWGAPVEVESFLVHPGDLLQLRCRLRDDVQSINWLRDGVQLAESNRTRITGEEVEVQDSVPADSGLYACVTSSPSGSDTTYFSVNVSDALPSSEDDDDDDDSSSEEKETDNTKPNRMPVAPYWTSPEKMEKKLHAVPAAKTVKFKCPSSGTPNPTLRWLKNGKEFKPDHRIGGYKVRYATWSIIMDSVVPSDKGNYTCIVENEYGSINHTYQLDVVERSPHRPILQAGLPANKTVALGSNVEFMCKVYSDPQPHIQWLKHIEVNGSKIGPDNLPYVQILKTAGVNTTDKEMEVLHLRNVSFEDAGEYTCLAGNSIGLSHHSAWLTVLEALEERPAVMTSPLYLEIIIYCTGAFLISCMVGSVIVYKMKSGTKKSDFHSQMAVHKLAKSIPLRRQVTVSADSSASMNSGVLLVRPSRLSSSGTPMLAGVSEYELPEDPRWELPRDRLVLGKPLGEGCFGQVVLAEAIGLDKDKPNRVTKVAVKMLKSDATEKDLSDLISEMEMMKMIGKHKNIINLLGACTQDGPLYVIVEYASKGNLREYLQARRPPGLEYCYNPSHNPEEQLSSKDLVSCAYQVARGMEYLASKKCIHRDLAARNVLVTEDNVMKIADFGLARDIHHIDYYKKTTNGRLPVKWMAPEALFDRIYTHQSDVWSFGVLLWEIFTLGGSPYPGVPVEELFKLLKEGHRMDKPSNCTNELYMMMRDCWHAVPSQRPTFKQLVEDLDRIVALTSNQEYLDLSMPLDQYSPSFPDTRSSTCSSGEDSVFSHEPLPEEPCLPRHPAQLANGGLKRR
# Description: as §1
# GSK3α(h) = GSK3α(h) (Homo sapiens, UniProt P49840); test: as above; type: biochemical
# Description: as §1
# IGF-1R(h) = IGF-1R(h) (Homo sapiens, UniProt P08069); test: as above; type: biochemical
# Description: as §1
# JAK2(h) = JAK2(h) (Homo sapiens, UniProt O60674); test: as above; type: biochemical
# Description: as §1
# JNK2α2(h) = JNK2α2(h) (Homo sapiens, UniProt P45984); test: as above; type: biochemical
# Description: as §1
# KDR(h) = KDR(h) (Homo sapiens, UniProt P35968); test: as above; type: biochemical
# Description: as §1
# MAPK2(h) = MAPK2(h) (Homo sapiens, UniProt P28482); test: as above; type: biochemical
# MAPK2(h), sequence (P28482 whole entry): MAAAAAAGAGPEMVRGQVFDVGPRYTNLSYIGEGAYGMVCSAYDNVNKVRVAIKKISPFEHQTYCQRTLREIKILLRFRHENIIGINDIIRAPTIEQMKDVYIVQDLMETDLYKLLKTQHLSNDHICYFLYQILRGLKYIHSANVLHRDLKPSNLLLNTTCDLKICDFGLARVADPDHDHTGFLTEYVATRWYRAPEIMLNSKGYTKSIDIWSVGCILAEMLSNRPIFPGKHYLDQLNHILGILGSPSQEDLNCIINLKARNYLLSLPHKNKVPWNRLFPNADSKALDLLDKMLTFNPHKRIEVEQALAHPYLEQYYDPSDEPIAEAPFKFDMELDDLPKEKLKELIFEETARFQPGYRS
# Description: as §1
# MEK1(h) = MEK1(h) (Homo sapiens, UniProt Q02750); test: as above; type: biochemical
# Description: as §1
# PAK2(h) = PAK2(h) (Homo sapiens, UniProt Q13177); test: as above; type: biochemical
# PAK2(h), sequence (Q13177 whole entry): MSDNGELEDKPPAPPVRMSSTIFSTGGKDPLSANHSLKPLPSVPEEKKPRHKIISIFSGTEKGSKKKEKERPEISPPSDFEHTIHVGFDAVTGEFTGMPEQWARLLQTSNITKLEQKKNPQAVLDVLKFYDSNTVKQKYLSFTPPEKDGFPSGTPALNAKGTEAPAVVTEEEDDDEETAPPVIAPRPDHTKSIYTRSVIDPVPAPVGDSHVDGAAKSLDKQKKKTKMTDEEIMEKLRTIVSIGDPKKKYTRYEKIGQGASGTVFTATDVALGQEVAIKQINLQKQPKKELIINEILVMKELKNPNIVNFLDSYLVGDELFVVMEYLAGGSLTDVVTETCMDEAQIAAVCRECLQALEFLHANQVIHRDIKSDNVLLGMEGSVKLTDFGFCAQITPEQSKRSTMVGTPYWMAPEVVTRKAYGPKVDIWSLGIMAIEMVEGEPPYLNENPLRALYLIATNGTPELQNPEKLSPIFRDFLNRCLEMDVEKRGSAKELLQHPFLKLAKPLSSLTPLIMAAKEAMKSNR
# Description: as §1
# PDGFRβ(h) = PDGFRβ(h) (Homo sapiens, UniProt P09619); test: as above; type: biochemical
# Description: as §1
# [1] = molecular target: PI3 Kinase (p110a/p85a)(h) (Homo sapiens, UniProt P42336); test: as above; type: biochemical
# Description: as §1
# PKBγ(h) = PKBγ(h) (Homo sapiens, UniProt Q9Y243); test: as above; type: biochemical
# Description: as §1
# PKCα(h) = PKCα(h) (Homo sapiens, UniProt P17252); test: as above; type: biochemical
# Description: as §1
# PKG1β(h) = PKG1β(h) (Homo sapiens, UniProt Q13976); test: as above; type: biochemical
# Description: as §1
# Pim-3(h) = Pim-3(h) (Homo sapiens, UniProt Q86V86); test: as above; type: biochemical
# Description: as §1
# Ret(h) = Ret(h) (Homo sapiens, UniProt P07949); test: as above; type: biochemical
# Description: as §1
# SAPK2a(h) = SAPK2a(h) (Homo sapiens, UniProt Q16539); test: as above; type: biochemical
# SAPK2a(h), sequence (Q16539 whole entry): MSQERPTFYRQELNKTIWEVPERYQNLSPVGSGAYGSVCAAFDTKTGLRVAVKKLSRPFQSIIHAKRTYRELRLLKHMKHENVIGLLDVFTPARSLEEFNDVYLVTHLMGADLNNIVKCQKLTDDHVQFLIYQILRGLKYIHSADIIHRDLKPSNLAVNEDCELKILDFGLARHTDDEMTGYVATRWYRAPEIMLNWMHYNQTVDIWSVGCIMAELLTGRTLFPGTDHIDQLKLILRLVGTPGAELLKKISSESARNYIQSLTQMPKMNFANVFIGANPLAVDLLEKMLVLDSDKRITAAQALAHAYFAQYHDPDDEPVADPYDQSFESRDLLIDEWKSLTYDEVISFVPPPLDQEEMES
# Description: as §1
# cKit(h) = cKit(h) (Homo sapiens, UniProt P10721); test: as above; type: biochemical
# Description: as §1
# [2] = tested on: LTP in CaMKII T286A slices; test: LTP induction in hippocampal slices from CaMKII T286A mutant mice; type: cell-based, mouse; conditions: 10 μM inhibitor
# [3] = molecular target: T1, CaMKII F89G binding to GluN2B in HEK cells (Homo sapiens, UniProt Q9UQM7, F89G); test: Ionomycin-induced co-localization of GFP-CaMKII F89G and mCh-GluN2B in HEK cells; type: cell-based; conditions: 10 μM NM-PP1
# T1 construct: expressed in transfected cells; host or cells: HEK cells
# T1 sequence (Q9UQM7 whole entry F89G): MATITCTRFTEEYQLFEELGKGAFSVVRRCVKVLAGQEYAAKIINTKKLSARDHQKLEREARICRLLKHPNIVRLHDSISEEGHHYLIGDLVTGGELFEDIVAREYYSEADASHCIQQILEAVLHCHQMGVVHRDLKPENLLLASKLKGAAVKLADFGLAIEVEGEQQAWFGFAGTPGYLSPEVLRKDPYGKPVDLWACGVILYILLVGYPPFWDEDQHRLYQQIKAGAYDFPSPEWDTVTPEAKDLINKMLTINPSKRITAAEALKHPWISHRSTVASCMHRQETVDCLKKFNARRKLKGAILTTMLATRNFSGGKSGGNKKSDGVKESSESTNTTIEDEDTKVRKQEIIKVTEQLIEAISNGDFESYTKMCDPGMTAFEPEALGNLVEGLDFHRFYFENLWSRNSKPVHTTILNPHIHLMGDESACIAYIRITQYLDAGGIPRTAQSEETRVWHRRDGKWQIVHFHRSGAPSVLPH
# T1 sequence (Q13224 836-1484 S1303A partner limits assumed): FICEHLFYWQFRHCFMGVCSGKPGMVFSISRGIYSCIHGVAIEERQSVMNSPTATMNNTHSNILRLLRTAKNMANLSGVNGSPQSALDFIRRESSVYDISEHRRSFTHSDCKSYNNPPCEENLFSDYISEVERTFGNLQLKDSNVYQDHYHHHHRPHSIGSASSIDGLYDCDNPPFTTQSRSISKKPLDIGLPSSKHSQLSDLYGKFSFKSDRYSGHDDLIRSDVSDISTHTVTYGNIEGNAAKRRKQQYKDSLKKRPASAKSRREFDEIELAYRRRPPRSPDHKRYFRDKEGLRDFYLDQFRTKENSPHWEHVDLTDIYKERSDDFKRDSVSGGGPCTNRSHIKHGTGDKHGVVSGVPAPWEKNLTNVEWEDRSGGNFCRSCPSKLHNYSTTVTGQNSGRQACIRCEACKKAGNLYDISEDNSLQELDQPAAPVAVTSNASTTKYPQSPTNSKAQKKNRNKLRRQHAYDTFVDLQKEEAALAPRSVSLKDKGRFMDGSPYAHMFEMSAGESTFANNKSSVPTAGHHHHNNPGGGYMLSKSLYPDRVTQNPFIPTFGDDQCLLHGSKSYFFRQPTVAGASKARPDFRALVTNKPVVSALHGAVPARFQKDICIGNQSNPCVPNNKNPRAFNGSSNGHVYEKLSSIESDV
# Description: This conclusion also predicts that the LTP stimulus-induced movement of CaMKII to excitatory synapses should be (i) impaired in the CaMKII F89G mutant; but (ii) normalized by pharmacogenetic rescue with NM-PP1. Indeed, both predictions were observed experimentally (FIGS. 4D-4E).
# Live imaging of HEK cells. HEK cells were grown and transfected with expression vectors for GFP-CaMKII mutants and pDisplay-mCh-GluN2B-c tail (2BC) as previously described; the GluN2B construct used included a S1303A mutation to avoid potential complications by differential phosphorylation of this regulatory site in the different conditions with or without kinase inhibitors. GFP-CaMKII colocalization with GluN2B in response to a Ca^2+ stimulus induced by 10 μM ionomycin was monitored for 5-10 min at 32° C. in imaging buffer (0.87× Hanks Balanced Salt Solution, 25 mM Hepes pH 7.4, 2 mM glucose, 2 mM CaCl2), 1 mM MgCl2) by fluorescence microscopy. Images were acquired on a Zeiss Axiovert 200M equipped with a climate control chamber, using SlideBook software (Intelligent Imaging Innovations). Colocalization analysis was performed by calculating the Pearson's correlation (correlation index) of pDisplay-mCh-2BC and GFP-CaMKII within the cytoplasm of HEK cells after background subtraction.
# AMPKα1(h), sequence (Q13131 whole entry): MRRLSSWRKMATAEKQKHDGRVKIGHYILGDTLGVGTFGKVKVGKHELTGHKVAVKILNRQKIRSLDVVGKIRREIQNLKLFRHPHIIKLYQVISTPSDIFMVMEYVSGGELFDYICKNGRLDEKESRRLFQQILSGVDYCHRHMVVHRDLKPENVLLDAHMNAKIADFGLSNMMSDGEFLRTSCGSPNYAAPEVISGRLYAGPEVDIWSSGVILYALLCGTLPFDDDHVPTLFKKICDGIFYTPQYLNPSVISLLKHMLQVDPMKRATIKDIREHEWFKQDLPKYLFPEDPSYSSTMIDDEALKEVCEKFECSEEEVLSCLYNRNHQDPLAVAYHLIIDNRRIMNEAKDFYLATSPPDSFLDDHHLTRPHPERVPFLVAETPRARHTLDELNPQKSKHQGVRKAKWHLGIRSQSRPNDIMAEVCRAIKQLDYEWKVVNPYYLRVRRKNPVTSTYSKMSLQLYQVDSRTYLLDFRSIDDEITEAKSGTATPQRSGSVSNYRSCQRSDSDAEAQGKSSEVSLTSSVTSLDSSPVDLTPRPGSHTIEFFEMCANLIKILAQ
# AMPKα1(h), sequence (Q9Y478 whole entry partner): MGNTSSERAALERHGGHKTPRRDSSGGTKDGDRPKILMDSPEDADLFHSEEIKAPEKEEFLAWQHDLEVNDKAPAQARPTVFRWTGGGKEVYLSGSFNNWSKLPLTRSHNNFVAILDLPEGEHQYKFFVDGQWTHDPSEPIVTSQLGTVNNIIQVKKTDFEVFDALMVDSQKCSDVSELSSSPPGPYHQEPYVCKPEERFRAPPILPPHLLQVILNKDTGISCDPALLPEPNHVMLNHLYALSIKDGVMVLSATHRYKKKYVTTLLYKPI
# AMPKα1(h), sequence (P54619 whole entry partner): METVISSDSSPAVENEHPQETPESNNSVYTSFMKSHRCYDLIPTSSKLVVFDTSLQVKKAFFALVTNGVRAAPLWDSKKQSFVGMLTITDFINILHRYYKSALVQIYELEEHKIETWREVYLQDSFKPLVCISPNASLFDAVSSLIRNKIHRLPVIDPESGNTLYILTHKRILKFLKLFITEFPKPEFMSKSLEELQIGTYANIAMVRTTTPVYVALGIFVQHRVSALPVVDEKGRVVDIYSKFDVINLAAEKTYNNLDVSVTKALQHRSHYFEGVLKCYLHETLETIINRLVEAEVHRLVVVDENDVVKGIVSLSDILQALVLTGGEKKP
smiles,measurement,setting,value
NCCNc1cccc(-c2ccnc3[nH]c4ccccc4c23)c1 [AS283],"residual kinase activity, AMPKα1(h)",AMPKα1(h),70 percentage of maximal activity
same,"residual kinase activity, Arg(h)",Arg(h),96 percentage of maximal activity
same,"residual kinase activity, Aurora-C(h)",Aurora-C(h),63 percentage of maximal activity
same,"residual kinase activity, CDK5/p35(h)",CDK5/p35(h),33 percentage of maximal activity
same,"residual kinase activity, CaMKIIα(h)",CaMKIIα(h),3 percentage of maximal activity
same,"residual kinase activity, CaMKIIβ(h)",CaMKIIβ(h),5 percentage of maximal activity
same,"residual kinase activity, CaMKIV(h)",CaMKIV(h),90 percentage of maximal activity
same,"residual kinase activity, FGFR1(h)",FGFR1(h),58 percentage of maximal activity
same,"residual kinase activity, GSK3α(h)",GSK3α(h),82 percentage of maximal activity
same,"residual kinase activity, IGF-1R(h)",IGF-1R(h),110 percentage of maximal activity
same,"residual kinase activity, JAK2(h)",JAK2(h),121 percentage of maximal activity
same,"residual kinase activity, JNK2α2(h)",JNK2α2(h),82 percentage of maximal activity
same,"residual kinase activity, KDR(h)",KDR(h),15 percentage of maximal activity
same,"residual kinase activity, MAPK2(h)",MAPK2(h),97 percentage of maximal activity
same,"residual kinase activity, MEK1(h)",MEK1(h),85 percentage of maximal activity
same,"residual kinase activity, PAK2(h)",PAK2(h),76 percentage of maximal activity
same,"residual kinase activity, PDGFRβ(h)",PDGFRβ(h),111 percentage of maximal activity
same,"residual kinase activity, PI3 Kinase (p110a/p85a)(h)",[1],100 percentage of maximal activity
same,"residual kinase activity, PKBγ(h)",PKBγ(h),42 percentage of maximal activity
same,"residual kinase activity, PKCα(h)",PKCα(h),49 percentage of maximal activity
same,"residual kinase activity, PKG1β(h)",PKG1β(h),38 percentage of maximal activity
same,"residual kinase activity, Pim-3(h)",Pim-3(h),97 percentage of maximal activity
same,"residual kinase activity, Ret(h)",Ret(h),44 percentage of maximal activity
same,"residual kinase activity, SAPK2a(h)",SAPK2a(h),95 percentage of maximal activity
same,"residual kinase activity, cKit(h)",cKit(h),50 percentage of maximal activity
same,LTP induction in slices from T286A mutant mice,[2],enabled LTP
CC(C)(C)n1nc(Cc2cccc3ccccc23)c2c(N)ncnc21 [NM-PP1],binding of CaMKII F89G to GluN2B in HEK cells after ionomycin,[3],fully enabled binding
